# Laboratory results published in patent publication US9624170B2, “4-(piperrazin-1-yl)-pyrrolidin-2-one compounds as monoacylglycerol lipase (MAGL) inhibitors” (TAKEDA PHARMACEUTICAL COMPANY LIMITED, priority 2013, dated 2017).
# Molecular target: T1, human MAGL (His-hMAGL) (Homo sapiens, UniProt Q99685)
# T1 construct: made in house; host or cells: Escherichia coli BL21(DE3)
# T1 sequence (Q99685 1-303): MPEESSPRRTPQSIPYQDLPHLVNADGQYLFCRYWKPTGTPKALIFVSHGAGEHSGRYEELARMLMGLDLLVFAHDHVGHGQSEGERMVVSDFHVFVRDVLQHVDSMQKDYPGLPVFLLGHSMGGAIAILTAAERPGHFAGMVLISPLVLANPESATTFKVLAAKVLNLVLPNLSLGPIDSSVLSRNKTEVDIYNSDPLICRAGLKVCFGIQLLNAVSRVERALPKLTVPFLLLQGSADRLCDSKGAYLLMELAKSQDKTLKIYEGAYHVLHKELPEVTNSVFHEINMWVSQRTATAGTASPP
# Test: Measurement of MAGL inhibitory activity by mass spectrometry
# Assay type: biochemical
# Details: 10 μM test compound; substrate 2-arachidonylglycerol, arachidonic acid by RapidFire-mass spectrometry
# Procedure: Thereafter, to each well was added 150 μM 2-arachidonylglycerol (Tocris Bioscience) by 5 μL, and the mixture was incubated at room temperature for 10 min. Then, 2% formic acid (Wako Pure Chemical Industries, Ltd.) was added by 10 μL to discontinue the reaction. Furthermore, acetonitrile (50 μL) containing 3 μM arachidonic acid-d8 (Cayman Chemical Company) was added and the mixture was stirred. The amount of arachidonic acid in the obtained enzyme reaction mixture was calculated by measuring by RapidFire-mass spectrometry and correcting by the amount of arachidonic acid-d8. High Throughput online solid phase extraction was performed using RapidFire 300TM system (Agilent Technologies, Inc.). […] The injection needle was washed with ultrapure water (500 millisecond) and acetonitrile (500 millisecond) to minimize carry-over. […] The RapidFire300 system was controlled by RapidFire UI software version 3.6 (Agilent Technologies, Inc.). The mass spectrometry of the resultant product was performed using […] triple quadrupole mass spectrometer (AB SCIEX) equipped with an electrospray ion sauce (Turbolon SprayTM) in a negative selected reaction monitoring (SRM) mode. The conditions of SRM are shown below. The parameters of the instrument were optimized as follows: capillary temperature 600° C., ion spray voltage -4.5 kV, collision gas 8, curtain gas 15 psi, ion source gas 1 60 psi, ion source gas 2 60 psi. The mass spectrometer was controlled by AnalystTM software version 1.5.1 (AB SCIEX). The peak area integration was analyzed using RapidFire integrator software version 3.6 (Agilent Technologies, Inc.). MAGL inhibitory rate (%) was calculated according to the following calculation formula.
row,inhibition at 10 µM [%],SMILES
1,101,"O=C1Cc2cc(-c3cccc(N4CC(N5CCN(C(=O)c6nccs6)CC5)CC4=O)c3)ccc2N1 (stereo not shown) [Example 105, 5-(3-(2-oxo-4-(4-(1,3-thiazol-2-ylcarbonyl)piperazin-1-yl)pyrrolidin-1-yl)phenyl)-1,3-dihydro-2H-indol-2-one]"
2,99,"O=C(c1nccs1)N1CCN(C2CC(=O)N(c3cccc(-c4cnn5ccccc45)c3)C2)CC1 (stereo not shown) [Example 106, 1-(3-(pyrazolo[1,5-a]pyridin-3-yl)phenyl)-4-(4-(1,3-thiazol-2-ylcarbonyl)piperazin-1-yl)pyrrolidin-2-one]"
3,97,"O=C(c1nccs1)N1CCN(C2CC(=O)N(c3ccc4c(ccn4-c4cc(C(F)(F)F)ccn4)c3)C2)CC1 (stereo not shown) [Example 108, 4-(4-(1,3-thiazol-2-ylcarbonyl)piperazin-1-yl)-1-(1-(4-(trifluoromethyl)pyridin-2-yl)-1H-indol-5-yl)pyrrolidin-2-one]"
4,100,"O=C(c1nccs1)N1CCN(C2CC(=O)N(c3ccc4c(ccn4-c4ccnc(C(F)(F)F)c4)c3)C2)CC1 (stereo not shown) [Example 109, 4-(4-(1,3-Thiazol-2-ylcarbonyl)piperazin-1-yl)-1-(1-(2-(trifluoromethyl)pyridin-4-yl)-1H-indol-5-yl)pyrrolidin-2-one]"
5,99,"CS(=O)(=O)Nc1ccc(-c2cccc(N3CC(N4CCN(C(=O)c5nccs5)CC4)CC3=O)c2)cc1 (stereo not shown) [Example 110, N-(3′-(2-oxo-4-(4-(1,3-thiazol-2-ylcarbonyl)piperazin-1-yl)pyrrolidin-1-yl)biphenyl-4-yl)methanesulfonamide]"
6,99,"O=C(c1nccs1)N1CCN(C2CC(=O)N(c3ccc4c(ccn4-c4ccc(C(F)(F)F)nc4)c3)C2)CC1 (stereo not shown) [Example 111, 4-(4-(1,3-thiazol-2-ylcarbonyl)piperazin-1-yl)-1-(1-(6-(trifluoromethyl)pyridin-3-yl)-1H-indol-5-yl)pyrrolidin-2-one]"
7,6,"CNS(=O)(=O)c1ccc(-c2cccc(N3CC(N4CCN(C(=O)c5nccs5)CC4)CC3=O)c2)cc1 (stereo not shown) [Example 112, N-methyl-3′-(2-oxo-4-(4-(1,3-thiazol-2-ylcarbonyl)piperazin-1-yl)pyrrolidin-1-yl)biphenyl-4-sulfonamide]"
8,80,"O=C(c1nccs1)N1CCN(C2CC(=O)N(c3ccc4[nH]ccc4c3)C2)CC1 (stereo not shown) [Example 113, 1-(1H-indol-5-yl)-4-(4-(1,3-thiazol-2-ylcarbonyl)piperazin-1-yl)pyrrolidin-2-one]"
9,98,"O=C(c1nccs1)N1CCN(C2CC(=O)N(c3ccc4c(cnn4Cc4ccc(F)cc4)c3)C2)CC1 (stereo not shown) [Example 114, 1-(1-(4-Fluorobenzyl)-1H-indazol-5-yl)-4-(4-(1,3-thiazol-2-ylcarbonyl)piperazin-1-yl)pyrrolidin-2-one]"
10,97,"O=C(c1nccs1)N1CCN(C2CC(=O)N(c3cccc(NC4CCCCC4)c3)C2)CC1 (stereo not shown) [Example 115, 1-(3-(cyclohexylamino)phenyl)-4-(4-(1,3-thiazol-2-ylcarbonyl)piperazin-1-yl)pyrrolidin-2-one]"
11,99,"CC(=O)Nc1ccc(Nc2cccc(N3CC(N4CCN(C(=O)c5nccs5)CC4)CC3=O)c2)cc1 (stereo not shown) [Example 116, N-(4-((3-(2-oxo-4-(4-(1,3-thiazol-2-ylcarbonyl)piperazin-1-yl)pyrrolidin-1-yl)phenyl)amino)phenyl)acetamide]"
12,99,"CC(=O)N(C)c1ccc(Nc2cccc(N3CC(N4CCN(C(=O)c5nccs5)CC4)CC3=O)c2)cc1 (stereo not shown) [Example 117, N-methyl-N-(4-((3-(2-oxo-4-(4-(1,3-thiazol-2-ylcarbonyl)piperazin-1-yl)pyrrolidin-1-yl)phenyl)amino)phenyl)acetamide]"
13,99,"CC(=O)Nc1cccc(Nc2cccc(N3CC(N4CCN(C(=O)c5nccs5)CC4)CC3=O)c2)c1 (stereo not shown) [Example 118, N-(3-((3-(2-oxo-4-(4-(1,3-thiazol-2-ylcarbonyl)piperazin-1-yl)pyrrolidin-1-yl)phenyl)amino)phenyl)acetamide]"
14,100,"O=C(c1nccs1)N1CCN(C2CC(=O)N(c3cccc(Nc4ccc(N5CCCC5=O)cc4)c3)C2)CC1 (stereo not shown) [Example 119, 1-(3-((4-(2-oxopyrrolidin-1-yl)phenyl)amino)phenyl)-4-(4-(1,3-thiazol-2-ylcarbonyl)piperazin-1-yl)pyrrolidin-2-one]"
15,98,"O=C1COc2ccc(Nc3cccc(N4CC(N5CCN(C(=O)c6nccs6)CC5)CC4=O)c3)cc2N1 (stereo not shown) [Example 122, 6-((3-(2-oxo-4-(4-(1,3-thiazol-2-ylcarbonyl)piperazin-1-yl)pyrrolidin-1-yl)phenyl)amino)-2H-1,4-benzoxazin-3(4H)-one]"
16,97,"O=C1CCc2ccc(Nc3cccc(N4CC(N5CCN(C(=O)c6nccs6)CC5)CC4=O)c3)cc2N1 (stereo not shown) [Example 123, 7-((3-(2-oxo-4-(4-(1,3-thiazol-2-ylcarbonyl)piperazin-1-yl)pyrrolidin-1-yl)phenyl)amino)-3,4-dihydroquinolin-2(1H)-one]"
17,97,"CC(=O)N1CCCC(Nc2cccc(N3CC(N4CCN(C(=O)c5nccs5)CC4)CC3=O)c2)C1 (stereo not shown) [Example 126, 1-(3-((1-acetylpiperidin-3-yl)amino)phenyl)-4-(4-(1,3-thiazol-2-ylcarbonyl)piperazin-1-yl)pyrrolidin-2-one]"
18,99,"CN1CC(Nc2cccc(N3CC(N4CCN(C(=O)c5nccs5)CC4)CC3=O)c2)CCC1=O (stereo not shown) [Example 127, 1-methyl-5-((3-(2-oxo-4-(4-(1,3-thiazol-2-ylcarbonyl)piperazin-1-yl)pyrrolidin-1-yl)phenyl)amino)piperidin-2-one]"
19,101,"O=C(c1nccs1)N1CCN(C2CC(=O)N(c3ccc4c(ccn4-c4ccc(C(F)(F)F)nn4)c3)C2)CC1 (stereo not shown) [Example 128, 4-(4-(1,3-thiazol-2-ylcarbonyl)piperazin-1-yl)-1-(1-(6-(trifluoromethyl)pyridazin-3-yl)-1H-indol-5-yl)pyrrolidin-2-one]"
20,101,"O=C(c1nccs1)N1CCN(C2CC(=O)N(c3ccc4c(ccn4-c4cnc(C(F)(F)F)cn4)c3)C2)CC1 (stereo not shown) [Example 129, 4-(4-(1,3-thiazol-2-ylcarbonyl)piperazin-1-yl)-1-(1-(5-(trifluoromethyl)pyrazin-2-yl)-1H-indol-5-yl)pyrrolidin-2-one]"
21,91,"O=C(c1nccs1)N1CCN(C2CC(=O)N(c3cncc(-c4ccccc4)c3)C2)CC1 (stereo not shown) [Example 131, 1-(5-phenylpyridin-3-yl)-4-(4-(1,3-thiazol-2-ylcarbonyl)piperazin-1-yl)pyrrolidin-2-one]"
22,101,"Cc1cccc(C)c1-c1cccc(N2CC(N3CCN(C(=O)c4nccs4)CC3)CC2=O)c1 (stereo not shown) [Example 132, 1-(2′,6′-dimethylbiphenyl-3-yl)-4-(4-(1,3-thiazol-2-ylcarbonyl)piperazin-1-yl)pyrrolidin-2-one]"
23,100,"COc1ccccc1-c1cccc(N2CC(N3CCN(C(=O)c4nccs4)CC3)CC2=O)c1 (stereo not shown) [Example 134, 1-(2′-methoxybiphenyl-3-yl)-4-(4-(1,3-thiazol-2-ylcarbonyl)piperazin-1-yl)pyrrolidin-2-one]"
24,100,"N#Cc1ccccc1-c1cccc(N2CC(N3CCN(C(=O)c4nccs4)CC3)CC2=O)c1 (stereo not shown) [Example 135, 3′-(2-oxo-4-(4-(1,3-thiazol-2-ylcarbonyl)piperazin-1-yl)pyrrolidin-1-yl)biphenyl-2-carbonitrile]"
25,102,"O=C(c1nccs1)N1CCN(C2CC(=O)N(c3cccc(-c4ccccc4F)c3)C2)CC1 (stereo not shown) [Example 136, 1-(2′-fluorobiphenyl-3-yl)-4-(4-(1,3-thiazol-2-ylcarbonyl)piperazin-1-yl)pyrrolidin-2-one]"
26,101,"O=C(c1nccs1)N1CCN(C2CC(=O)N(c3cccc(-c4ccccc4C(F)(F)F)c3)C2)CC1 (stereo not shown) [Example 138, 4-(4-(1,3-thiazol-2-ylcarbonyl)piperazin-1-yl)-1-(2′-(trifluorornethyl)biphenyl-3-yl)pyrrolidin-2-one]"
27,100,"O=C(c1nccs1)N1CCN(C2CC(=O)N(c3cccc(-c4ccccc4)n3)C2)CC1 (stereo not shown) [Example 140, 1-(6-phenylpyridin-2-yl)-4-(4-(1,3-thiazol-2-ylcarbonyl)piperazin-1-yl)pyrrolidin-2-one]"
28,98,"O=C(c1nccs1)N1CCN(C2CC(=O)N(c3ccc4c(c3)CCN4c3ncc(C(F)(F)F)cn3)C2)CC1 (stereo not shown) [Example 141, 4-(4-(1,3-Thiazol-2-ylcarbonyl)piperazin-1-yl)-1-(1-(5-(trifluoromethyl)pyrimidin-2-yl)-2,3-dihydro-1H-indol-5-yl)pyrrolidin-2-one]"
